Experimental data taken from patent US9492434B2, “Combination compositions and methods of treatment” (University of Florida Research Foundation, Inc., priority 2011, dated 2016).

Experiments:
Type in all cases: cell-based, human
[1] = system: E-Cadherin-containing complexes; assay: GST pulldown (glutathione-agarose) of E-Cadherin complexes from 231/E-Cad-GST cells, immunoblot; conditions: for stabilization of E-Cadherin/γ-Catenin complexes relative to vehicle: 10 nM Largazole, 1 μM SAHA, or 100 nM TSA (FIG. 6C)
Method: Cells were subjected to hypotonic lysis and membrane fractions were isolated by centrifugation for one hour at 100,000×g. The pellet was solubilized by sonication in buffer containing 2% Triton X100, 20 mM HEPES (pH 7.4), 1 mM EDTA, 1 mM EGTA, 0.1% β-mercaptoethanol, 5% glycerol, 10 nM microcystin, 200 μM Na3VO4, and 40 mM Na2H2P2O7. The membrane extract was centrifuged for one hour at 100,000×g, and the supernatant was used for E-Cadherin purifications. Complexes containing E-Cad-GST were isolated using glutathione-agarose (G4510; Sigma-Aldrich, St. Louis, Mo.), washed, and either eluted with 5 mM glutathione or eluted by boiling in SDS-PAGE sample buffer. In sequential purifications involving γ-Catenin-His6 and E-Cad-GST proteins expressed in the same cells, TALON (635503; Clontech Laboratories, Inc., Mountain View, Calif.) resin purifications were performed as described previously (Chytil et al 2004), and the 400 mM imidazole eluents were diluted ten-fold and purified using glutathione-agarose, followed by elution with 5 mM glutathione. […] Immunoprecipitations were performed as described previously (Law et al 2002) using 2 mg of total protein extract per sample and 4 μg of antibody per sample. Immunoprecipitates prepared using antibodies to E-Cadherin (610182; BD Biosciences) or GST (sc-459; Santa Cruz Biotechnology Inc.) were isolated with 35 μl per sample Protein G-Sepharose (10-1242; Invitrogen), washed, and eluted by boiling in SDS-PAGE sample buffer.
FIG. 6. […] A. Crude lysates (left panel) or GST pulldowns (right panel) from 231/E-Cad-GST cells treated for 72 hrs with 100 nM Dexamethasone, 10 nM Largazole, or Dex.+Larg. were analyzed by immunoblot. B. 231/E-Cad-GST cells were infected with an adenovirus encoding His6-tagged γ-Catenin and 231/neo cells were infected with an adenovirus encoding GFP and incubated 24 hours. The cells were then treated as indicated for 72 hrs with or without Dex.+Larg. γ-Catenin- and E-Cadherin containing complexes were isolated by sequential TALON and glutathione-agarose chromatography and analyzed by immunoblot. C. 231/E-Cad-GST cells were treated with 10 nM Largazole, 1 μM SAHA, or 100 nM TSA for 72 hrs and extracts were subjected to glutathione-agarose chromatography and the affinity purified material was analyzed by immunoblot.

BT549 cells = conditions: 72 hrs; 100 nM Dexamethasone, 10 nM Largazole, or both (FIG. 3D)
[2] = system: 231/E-GFP cell line (MDA-MB-231 cells stably expressing E-Cad-GFP); assay: Fluorescence microscopy of E-Cad-GFP localization in 231/E-Cad-GFP cells; conditions: 72 hrs, 100 nM Dexamethasone, 10 nM Largazole, or both (FIG. 3A)
Method: Fluorescence and immunofluorescence microscopy were performed essentially as described previously (Corsino et al 2008) employing antibodies to E-Cadherin (610182; BD Bioscience) and γ-Catenin (138500; Invitrogen, Carlsbad, Calif.).
The 231/E-GFP cell line was treated with a series of small molecule signaling agonists and antagonists to identify compounds that modulate E-Cadherin localization within the cell. […] Changes in E-Cadherin localization partially overlapped with changes in γ-Catenin localization. In vitro invasion assays were performed to determine the respective effects of E-Cadherin expression and Dex.+Larg. treatment on the invasiveness of MDA-MB-231 cells.
FIG. 3. Dexamethasone and Largazole cooperate to suppress invasion and to restore E-Cadherin localization to the cell periphery. A. Fluorescence (E-Cad-GFP) or immunofluorescence microscopy (γ-Catenin (γ-Cat.)) of 231/E-Cad-GFP cells treated for 72 hrs with Vehicle (Control), 100 nM Dexamethasone, 10 nM Largazole, or 100 nM Dexamethasone+10 nM Largazole (Dex.+Larg.). […] BT549 cells were treated and analyzed by immunofluorescence microscopy as in FIG. 3A. D. BT549 cells were treated as described in FIG. 3A and analyzed for invasion as outlined in FIG. 3B.

CDCP1 = CDCP1 immunoblot analysis, MDA-MB-231 cells; conditions: 72 hr, Dexamethasone 100 nM, Largazole 10 nM (FIG. 5A, 5C)

Row | SMILES | stabilization of E-Cadherin/γ-Catenin complexes relative to vehicle ([1]; 231/E-Cad-GST cells, 72 hrs) | invasion of BT549 cells in vitro (BT549 cells) | E-Cadherin localization to the cell-cell periphery [2] | γ-Catenin binding to E-Cadherin ([1]; 231/E-Cad-GST cells, 72 hrs, 100 nM Dexamethasone or 10 nM Largazole (FIG. 6A)) | levels of γ-Catenin ([1]; 231/E-Cad-GST crude lysates, 72 hrs, 10 nM Largazole (FIG. 6A)) | E-Cadherin association with β-Catenin ([1]; Largazole treatment) | CDCP1 cleavage (cleaved form cCDCP1, p80) (CDCP1)
1 | O=C(CCCCCCC(=O)Nc1ccccc1)NO [SAHA, suberoylanilide hydroxamic acid, reference compound] | stabilized E-Cadherin/γ-Catenin complexes to similar extents relative to vehicle treatment |  |  |  |  |  | 
2 | CC(/C=C/C(=O)NO)=C\[C@@H](C)C(=O)c1ccc(N(C)C)cc1 [TSA, Trichostatin A, reference compound] | stabilized E-Cadherin/γ-Catenin complexes to similar extents relative to vehicle treatment |  |  |  |  |  | 
3 | CCCCCCCC(=O)SCC/C=C/[C@@H]1CC(=O)NCc2nc(cs2)C2=N[C@@](C)(CS2)C(=O)N[C@@H](C(C)C)C(=O)O1 [Largazole, largazole] | stabilized E-Cadherin/γ-Catenin complexes to similar extents relative to vehicle treatment | suppressed the invasion of BT549 cells in vitro | modestly increased E-Cadherin localization to the cell-cell periphery | preferentially increased γ-Catenin binding to E-Cadherin relative to β-Catenin binding | without changing the levels of γ-Catenin | little effect on E-Cadherin association with β-Catenin | did not influence CDCP1 cleavage
